Results on 13 compounds are retold here after PubChem BioAssay (NCI).

The structures appear in SMILES notation.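 In this assay, cells in 96-well plates receive the compound at five concentrations for 48 hours. Endpoints are linearly interpolated between the surrounding concentrations. GI50 is the concentration that inhibits growth by half. TGI is the concentration that stops growth completely.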

Some test systems named below: SW-620 colon; SF-268 CNS; IGROV1 ovarian; RPMI-8226 leukemia; LOX IMVI melanoma; KM12 colon; OVCAR-4 ovarian; HT29 colon; CAKI-1 renal; MOLT-4 leukemia.
Assay in all cases: inhibition of tumour cell growth, NCI panel, 48 h

Regarding `c1ccc(CCN2CCOCC2)nc1`, the TGI in the experiment with SW-620 colon, in the experiment with SF-268 CNS, in the experiment with IGROV1 ovarian, in the experiment on RPMI-8226 leukemia, in the experiment on LOX IMVI melanoma and in the experiment on KM12 colon was more than 100 µM in each case. Moreover, the TGI in the experiment on OVCAR-4 ovarian, with HT29 colon and in the experiment on CAKI-1 renal was more than 100 µM each time.
Take `O=C(Nc1cccc([N+](=O)[O-])c1)C(=O)C(C(=O)c1ccccc1F)C1OC(=O)C2C=CC=CC21` (stereo not drawn): the TGI in the experiment on SW-620 colon is more than 100 µM; in the experiment with SF-268 CNS, 70.6 µM; with IGROV1 ovarian it was more than 100 µM; in the experiment with MOLT-4 leukemia it was more than 100 µM; with RPMI-8226 leukemia, more than 100 µM; with LOX IMVI melanoma, 51.7 µM. For the same compound, the TGI in the experiment on KM12 colon, in the experiment with OVCAR-4 ovarian, in the experiment on HT29 colon and with CAKI-1 renal was more than 100 µM each time.
Regarding `N#Cc1c(-c2cccc(Cl)c2)cc(-c2ccc(Cl)cc2)nc1N`, the TGI with SW-620 colon turned out to be 34.2 µM; in the experiment on SF-268 CNS it was 37.7 µM; with IGROV1 ovarian it was 24.4 µM; in the experiment on MOLT-4 leukemia, 58.6 µM; in the experiment with RPMI-8226 leukemia it was 48 µM; in the experiment with LOX IMVI melanoma it was 31.5 µM. The TGI was determined as 80.7 µM in the experiment on KM12 colon, 33.1 µM with OVCAR-4 ovarian, 44 µM in the experiment on HT29 colon and 86 µM with CAKI-1 renal.
In the case of `CCOC(=O)C(=O)Nc1c(CC)cccc1C(C)CC` (stereo not drawn), the TGI in the experiment with SW-620 colon, with SF-268 CNS, in the experiment on IGROV1 ovarian, in the experiment on MOLT-4 leukemia, with RPMI-8226 leukemia and in the experiment with LOX IMVI melanoma was more than 100 µM in each case. Also, the TGI with KM12 colon, with OVCAR-4 ovarian, in the experiment with HT29 colon and with CAKI-1 renal was more than 100 µM throughout.
Consider `Cc1nc2c(O)cc3c4c(n(Cc5ccccc5)c3c2nc1C)C(=O)CCC4`, for which the TGI was more than 100 µM with SW-620 colon; 50.9 µM in the experiment on SF-268 CNS; more than 100 µM in the experiment with MOLT-4 leukemia; more than 100 µM in the experiment with RPMI-8226 leukemia; more than 100 µM in the experiment with LOX IMVI melanoma; more than 100 µM in the experiment on KM12 colon. For the same compound, the TGI was 59.3 µM with OVCAR-4 ovarian and more than 100 µM with HT29 colon.
With `O=C1C(c2c(O)[nH]c3ccccc23)=Nc2ccc(Br)cc21`, the TGI is more than 100 µM with SW-620 colon; 90.2 µM in the experiment on SF-268 CNS; more than 100 µM with IGROV1 ovarian; 40.8 µM with MOLT-4 leukemia; more than 100 µM in the experiment with RPMI-8226 leukemia; more than 100 µM with LOX IMVI melanoma. Further, the TGI in the experiment on KM12 colon is more than 100 µM; in the experiment on OVCAR-4 ovarian, 69.5 µM; in the experiment on HT29 colon, more than 100 µM; with CAKI-1 renal, more than 100 µM.
In the case of `COc1cc(NC(=O)CSc2nc3ccccc3c(=O)n2CCc2ccccc2)cc(OC)c1OC`, the GI50 in the experiment on SF-268 CNS was 3.55 µM; with IGROV1 ovarian it was 1.93 µM; with MOLT-4 leukemia it was more than 100 µM; in the experiment with LOX IMVI melanoma it was 4.11 µM. Moreover, the TGI in the experiment on SF-268 CNS is 43.9 µM; with IGROV1 ovarian, 4.46 µM; with MOLT-4 leukemia it was more than 100 µM; with LOX IMVI melanoma, more than 100 µM.
Turning to `O=C1C(=c2cc3c(c4ccccc24)=NC24CCCCC2C(c2ccccc2)C=C(c2ccccc2)N34)C(=O)c2ccccc21` (stereo not drawn), the TGI is more than 100 µM with SW-620 colon; more than 100 µM with SF-268 CNS; more than 100 µM in the experiment on IGROV1 ovarian; 64.7 µM in the experiment on MOLT-4 leukemia; 53.8 µM in the experiment on RPMI-8226 leukemia; more than 100 µM in the experiment with LOX IMVI melanoma. The TGI in the experiment on KM12 colon is more than 100 µM; with OVCAR-4 ovarian it was 68.3 µM; in the experiment on HT29 colon, more than 100 µM; with CAKI-1 renal it was more than 100 µM.
`CCCC1=C(C(=O)OCC)C(c2ccccc2OC)C(C#N)=C(N)O1` (stereo not drawn): the GI50 in the experiment on SW-620 colon is 27.8 µM; with SF-268 CNS, 37.8 µM; with IGROV1 ovarian, 14.7 µM; in the experiment on MOLT-4 leukemia, 26.1 µM; with RPMI-8226 leukemia it was 13.3 µM; with LOX IMVI melanoma, 29.9 µM. The GI50 in the experiment with KM12 colon is 21.1 µM; in the experiment with OVCAR-4 ovarian, 65.4 µM; with HT29 colon, 34.4 µM; in the experiment on CAKI-1 renal it was 57.5 µM. Moreover, the TGI in the experiment on SW-620 colon is more than 100 µM; in the experiment on SF-268 CNS, more than 100 µM; in the experiment on IGROV1 ovarian it was 36.4 µM; in the experiment with MOLT-4 leukemia it was 89.8 µM; in the experiment on RPMI-8226 leukemia it was 32.2 µM; with LOX IMVI melanoma, more than 100 µM. Also, the TGI in the experiment on KM12 colon, with OVCAR-4 ovarian, with HT29 colon and with CAKI-1 renal was more than 100 µM in each case.
Turning to `CNS(=O)(=O)c1ccc2[nH]c(O)c(C3=Nc4ccccc4C3=O)c2c1`, the TGI in the experiment on SW-620 colon, with SF-268 CNS, in the experiment on IGROV1 ovarian, in the experiment with MOLT-4 leukemia, in the experiment on RPMI-8226 leukemia and in the experiment on LOX IMVI melanoma was more than 100 µM throughout. For the same compound, the TGI in the experiment on HT29 colon and in the experiment with CAKI-1 renal was more than 100 µM in each case.
Turning to `COc1cc2c(cc1OC)C1Cc3cc(OC)c(OC)cc3C(C2)O1`, the TGI in the experiment on SW-620 colon, with SF-268 CNS, with IGROV1 ovarian, in the experiment with MOLT-4 leukemia, in the experiment with RPMI-8226 leukemia and with LOX IMVI melanoma was more than 100 µM throughout. Further, the TGI in the experiment on KM12 colon, in the experiment on OVCAR-4 ovarian, with HT29 colon and with CAKI-1 renal was more than 100 µM in each case.
For the compound `Nc1cccc2c1C1=NNC(=O)CC1C2` (stereo not drawn), the TGI in the experiment with SW-620 colon, with SF-268 CNS, in the experiment with IGROV1 ovarian, with MOLT-4 leukemia, in the experiment on RPMI-8226 leukemia and in the experiment with LOX IMVI melanoma was more than 100 µM throughout. In addition, the TGI in the experiment on KM12 colon was more than 100 µM; in the experiment with OVCAR-4 ovarian, more than 100 µM; with HT29 colon it was more than 22.9 µM; with CAKI-1 renal, more than 100 µM.
As to `O=C(NCCNc1nccc(-c2c(-c3cccc(O)c3)nc3sccn23)n1)Nc1cccc(C(F)(F)F)c1`, the GI50 in the experiment on SW-620 colon is 3.84 µM; in the experiment with SF-268 CNS, 3.45 µM; with IGROV1 ovarian, 3.48 µM; in the experiment on MOLT-4 leukemia, 3.6 µM; with RPMI-8226 leukemia, 2.52 µM; with LOX IMVI melanoma, 4.05 µM. For the same compound, the GI50 in the experiment with KM12 colon was 2.78 µM; in the experiment with OVCAR-4 ovarian, 3.97 µM; with HT29 colon, 3.45 µM; in the experiment with CAKI-1 renal, 14.2 µM. Further, the TGI in the experiment with SW-620 colon was 13.4 µM; in the experiment on SF-268 CNS, 14.6 µM; with IGROV1 ovarian, 13.1 µM; in the experiment with MOLT-4 leukemia, 14.6 µM; in the experiment on RPMI-8226 leukemia it was 5.46 µM; in the experiment on LOX IMVI melanoma, 26.2 µM. The TGI in the experiment with KM12 colon amounted to 6.98 µM; with OVCAR-4 ovarian, 14.2 µM; with HT29 colon, 10.8 µM; with CAKI-1 renal, 50.5 µM.
